Experimental data as given in US10253039B2, “Inhibitors of bacterial DNA gyrase with efficacy against gram-negative bacteria” (priority 2014, dated 2019).
≈ marks a conversion by molar mass, not a printed value.

Columns and labels:
Type in all cases: cell-based
E. coli BW25113 = test: MIC, microdilution in 96-well plates; details: Escherichia coli, BW25113, B: E. coli BW25113; read-out: MIC
Method in brief: (§1)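 CLSI microdilution, LB, 1:10000 inoculum of actively growing culture; 2-fold dilution series in triplicate, DMSO control lane; 37° C., shaking, 16-18 h; endpoint = no visible growth.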

Edwardsiella tarda = test: MIC, microdilution in 96-well plates; details: D: Edwardsiella tarda
Method in brief: as §1

[1] = system: Salmonella enterica subsp. enterica typhimurium; test: MIC, 20-strain panel; details: F: Salmonella enterica subsp. enterica Typhimurium
Method in brief: as §1

Shigella flexneri = test: MIC, 20-strain panel; details: G: Shigella flexneri
Method in brief: as §1

E. coli MG1655 = test: MIC, 20-strain panel; details: Escherichia coli, MG1655, A: E. coli MG1655; read-out: MIC
Method in brief: as §1

[2] = system: Klebsiella pneumoniae subsp. pneumoniae; test: MIC, 20-strain panel; details: E: Klebsiella pneumoniae subsp. pneumoniae
Method in brief: as §1

[3] = system: Staphylococcus epidermidis; test: MIC, 20-strain panel
Method in brief: as §1

[4] = system: Staphylococcus saprophyticus subsp. saprophyticus; test: MIC, 20-strain panel
Method in brief: as §1

[5] = system: Staphylococcus aureus subsp. aureus; test: MIC, 20-strain panel; details: H: Staphylococcus aureus subsp. aureus, read-out: MIC
Method in brief: as §1

Streptococcus pyogenes = test: MIC, 20-strain panel
Method in brief: as §1

Streptococcus agalactiae = test: MIC, 20-strain panel
Method in brief: as §1

E. coli JW5503 (deltolC) = test: MIC, 20-strain panel; details: Escherichia coli, C: E. coli JW5503 (deltolC)
Method in brief: as §1

Structure (SMILES)	MIC (E. coli BW25113)	MIC (Edwardsiella tarda)	MIC [1]	MIC (Shigella flexneri)	MIC (E. coli MG1655)	MIC [2]	MIC [3]	MIC [4]	MIC [5]	MIC (Streptococcus pyogenes)	MIC (Streptococcus agalactiae)	MIC (E. coli JW5503 (deltolC))
O=S(=O)(N[C@@H]1CCN(Cc2ccc(OC(F)F)cc2)C1)c1cccc(OC(F)(F)F)c1 [Compound 106]	> 8 µg/mL	> 8 µg/mL	> 8 µg/mL	> 8 µg/mL	> 8 µg/mL	> 8 µg/mL	> 8 µg/mL	> 8 µg/mL	> 8 µg/mL	> 8 µg/mL	> 8 µg/mL	> 8 µg/mL
O=S(=O)(N[C@@H]1CCN(Cc2nc(-c3ccccc3)cs2)C1)c1cccc(OC(F)(F)F)c1 [Compound 107]	> 8 µg/mL	> 8 µg/mL	> 8 µg/mL	> 8 µg/mL	> 8 µg/mL	> 8 µg/mL	> 8 µg/mL	> 8 µg/mL	> 8 µg/mL	> 8 µg/mL	> 8 µg/mL	> 8 µg/mL
O=S(=O)(N[C@@H]1CCN(Cc2cn(-c3ccccc3)nn2)C1)c1cccc(C(F)(F)F)c1 [Compound 108]	> 8 µg/mL	> 8 µg/mL	> 8 µg/mL	> 8 µg/mL	> 8 µg/mL	> 8 µg/mL	> 8 µg/mL	> 8 µg/mL	> 8 µg/mL	> 8 µg/mL	> 8 µg/mL	> 8 µg/mL
N#Cc1cccc(S(=O)(=O)N[C@@H]2CCN(Cc3ccc(OC4CCC4)cc3)C2)c1 [Compound 109]	> 8 µg/mL	> 8 µg/mL	8 µg/mL (≈ 19.4 µM)	> 8 µg/mL	> 8 µg/mL	> 8 µg/mL	> 8 µg/mL	> 8 µg/mL	> 8 µg/mL	> 8 µg/mL	> 8 µg/mL	0.5 µg/mL (≈ 1.21 µM)
O=S(=O)(N[C@@H]1CCN(Cc2ccc(-c3ccccc3)cc2)C1)c1cc(Cl)cc(C(F)(F)F)c1 [Compound 110]	> 8 µg/mL	> 8 µg/mL	> 8 µg/mL	> 8 µg/mL	> 8 µg/mL	> 8 µg/mL	4 µg/mL (≈ 8.08 µM)	> 8 µg/mL	> 8 µg/mL	8 µg/mL (≈ 16.2 µM)	> 8 µg/mL	> 8 µg/mL
O=S(=O)(N[C@@H]1CCN(Cc2ccc(-c3ccccc3)cc2)C1)c1cnc2ccsc2c1 [Compound 111]	> 8 µg/mL	> 8 µg/mL	> 8 µg/mL	> 8 µg/mL	> 8 µg/mL	> 8 µg/mL	> 8 µg/mL	> 8 µg/mL	> 8 µg/mL	> 8 µg/mL	> 8 µg/mL	> 8 µg/mL
Cc1ccc(C#N)cc1S(=O)(=O)N[C@@H]1CCN(Cc2ccc(OC(C)C)cc2)C1 [Compound 112]	> 8 µg/mL	> 8 µg/mL	4 µg/mL (≈ 9.67 µM)	> 8 µg/mL	> 8 µg/mL	> 8 µg/mL	> 8 µg/mL	> 8 µg/mL	> 8 µg/mL	> 8 µg/mL	> 8 µg/mL	0.25 µg/mL (≈ 0.605 µM)
O=S(=O)(N[C@@H]1CCN(Cc2ccc(-c3ccccc3)cc2)C1)c1cc(C(F)(F)F)ccc1F [Compound 114]	> 8 µg/mL	> 8 µg/mL	4 µg/mL (≈ 8.36 µM)	> 8 µg/mL	> 8 µg/mL	> 8 µg/mL	~8 µg/mL (≈ 16.7 µM)	> 8 µg/mL	> 8 µg/mL	~8 µg/mL (≈ 16.7 µM)	> 8 µg/mL	1 µg/mL (≈ 2.09 µM)
Cc1nn(C)c2ncc(S(=O)(=O)N[C@@H]3CCN(Cc4ccc(-c5ccccc5)cc4)C3)cc12 [Compound 115]	> 8 µg/mL	> 8 µg/mL	> 8 µg/mL	> 8 µg/mL	> 8 µg/mL	> 8 µg/mL	> 8 µg/mL	> 8 µg/mL	> 8 µg/mL	> 8 µg/mL	> 8 µg/mL	> 8 µg/mL
CC(C)Oc1c(Cl)cc(CN2CC[C@@H](NS(=O)(=O)c3cccc(C#N)c3)C2)cc1Cl [Compound 116]	> 8 µg/mL	> 8 µg/mL	> 8 µg/mL	> 8 µg/mL	> 8 µg/mL	> 8 µg/mL	> 8 µg/mL	> 8 µg/mL	> 8 µg/mL	> 8 µg/mL	> 8 µg/mL	> 8 µg/mL
CC(C)Oc1c(Cl)cc(CN2CC[C@@H](NS(=O)(=O)c3cccc(OC(F)(F)F)c3)C2)cc1Cl [Compound 117]	> 8 µg/mL	> 8 µg/mL	> 8 µg/mL	> 8 µg/mL	> 8 µg/mL	> 8 µg/mL	> 8 µg/mL	> 8 µg/mL	> 8 µg/mL	> 8 µg/mL	> 8 µg/mL	> 8 µg/mL
CC(C)Oc1ccc(CN2CC[C@@H](NS(=O)(=O)c3ccc(Cl)c(C#N)c3)C2)cc1 [Compound 118]	> 8 µg/mL	> 8 µg/mL	> 8 µg/mL	> 8 µg/mL	> 8 µg/mL	> 8 µg/mL	> 8 µg/mL	> 8 µg/mL	> 8 µg/mL	> 8 µg/mL	> 8 µg/mL	> 8 µg/mL
N#Cc1cc(S(=O)(=O)N[C@@H]2CCN(Cc3ccc(OC4CC4)cc3)C2)ccc1Cl [Compound 119]	> 8 µg/mL	> 8 µg/mL	> 8 µg/mL	> 8 µg/mL	> 8 µg/mL	> 8 µg/mL	> 8 µg/mL	> 8 µg/mL	> 8 µg/mL	> 8 µg/mL	> 8 µg/mL	> 8 µg/mL
N#Cc1cc(S(=O)(=O)N[C@@H]2CCN(Cc3ccc(-c4ccccc4)cc3)C2)ccc1Cl [Compound 120]	> 8 µg/mL	> 8 µg/mL	> 8 µg/mL	> 8 µg/mL	> 8 µg/mL	> 8 µg/mL	> 8 µg/mL	> 8 µg/mL	> 8 µg/mL	> 8 µg/mL	> 8 µg/mL	~8 µg/mL (≈ 17.7 µM)
Cc1ccncc1S(=O)(=O)N[C@@H]1CCN(Cc2ccc(OC(C)C)cc2)C1 [Compound 121]	> 8 µg/mL	> 8 µg/mL	> 8 µg/mL	> 8 µg/mL	> 8 µg/mL	> 8 µg/mL	> 8 µg/mL	> 8 µg/mL	> 8 µg/mL	> 8 µg/mL	> 8 µg/mL	~8 µg/mL (≈ 20.5 µM)
O=S(=O)(N[C@@H]1CCN(Cc2ccc(-c3ccccc3)cc2)C1)c1cnccc1Cl [Compound 122]	> 8 µg/mL	> 8 µg/mL	> 8 µg/mL	> 8 µg/mL	> 8 µg/mL	> 8 µg/mL	~8 µg/mL (≈ 18.7 µM)	> 8 µg/mL	> 8 µg/mL	> 8 µg/mL	> 8 µg/mL	4 µg/mL (≈ 9.35 µM)
Cc1nn(C)c2ncc(S(=O)(=O)N[C@@H]3CCN(Cc4ccc(OC(C)C)cc4)C3)cc12 [Compound 123]	> 8 µg/mL	> 8 µg/mL	> 8 µg/mL	> 8 µg/mL	> 8 µg/mL	> 8 µg/mL	> 8 µg/mL	> 8 µg/mL	> 8 µg/mL	> 8 µg/mL	> 8 µg/mL	> 8 µg/mL
N#Cc1cccc(S(=O)(=O)N[C@@H]2CCN(Cc3cn(-c4ccccc4)nn3)C2)c1 [Compound 124]	> 8 µg/mL	> 8 µg/mL	> 8 µg/mL	> 8 µg/mL	> 8 µg/mL	> 8 µg/mL	> 8 µg/mL	> 8 µg/mL	> 8 µg/mL	> 8 µg/mL	> 8 µg/mL	> 8 µg/mL
O=S(=O)(N[C@@H]1CCN(Cc2ccn(-c3ccccc3)n2)C1)c1cccc(C(F)(F)F)c1 [Compound 125]	> 8 µg/mL	> 8 µg/mL	> 8 µg/mL	> 8 µg/mL	> 8 µg/mL	> 8 µg/mL	> 8 µg/mL	> 8 µg/mL	> 8 µg/mL	> 8 µg/mL	> 8 µg/mL	> 8 µg/mL
N#Cc1cccc(S(=O)(=O)N[C@@H]2CCN(Cc3ccn(-c4ccccc4)n3)C2)c1 [Compound 126]	> 8 µg/mL	> 8 µg/mL	> 8 µg/mL	> 8 µg/mL	> 8 µg/mL	> 8 µg/mL	> 8 µg/mL	> 8 µg/mL	> 8 µg/mL	> 8 µg/mL	> 8 µg/mL	> 8 µg/mL
COc1ccccc1-c1ccc(CN2CC[C@@H](NS(=O)(=O)c3cccc(C#N)c3)C2)cc1 [Compound 127]	> 8 µg/mL	> 8 µg/mL	> 8 µg/mL	> 8 µg/mL	> 8 µg/mL	> 8 µg/mL	> 8 µg/mL	> 8 µg/mL	> 8 µg/mL	> 8 µg/mL	> 8 µg/mL	4 µg/mL (≈ 8.94 µM)
O=S(=O)(N[C@@H]1CCN(Cc2ccc(OC3CC3)cc2)C1)c1cc(C(F)(F)F)cc(C(F)(F)F)c1 [Compound 128]	> 8 µg/mL	> 8 µg/mL	> 8 µg/mL	> 8 µg/mL	> 8 µg/mL	> 8 µg/mL	> 8 µg/mL	> 8 µg/mL	> 8 µg/mL	> 8 µg/mL	> 8 µg/mL	8 µg/mL (≈ 15.7 µM)
